The test system of experiment [1] is pyrimidine and purine metabolites in activated human T cells. The format is cell-based. The following applies: 24 h; for levels of UMP, UDP, UTP and CTP (metabolites downstream of UMPS) / levels of carbamoyl aspartate, DHO and orotate: adenosine-exposed activated human T cells.
The test system of experiment [2] is activated human T cells (proliferation). Nature of the experiment: cells. The format is cell-based. The following applies: for pEC50: Homo sapiens, T-cell; for effect of the substance on T cell proliferation: activated human T cells; for restoration of adenosine-mediated inhibition of T cell proliferation: uridine, cytidine all 30 µM.
For experiment [3], the system named is NLVPMVATV-specific CD8^+ T cells in PBMCs. Nature of the experiment: CMV pp65 antigen recall assay, tetramer staining. The format is cell-based, human. The conditions noted are these: in the presence of ATP (300 µM); EOS301984 300 nM, anti-PD-1 10 µg ml^-1; representative donor.
Experiment [4] deals with activated human T cells (viability). The format is cell-based. The following applies: for effect of the substance on T cell viability: activated human T cells.
The test system of experiment [5] is TNF production by activated human T cells. The format is cell-based.
Experiment [6] deals with NLVPMVATV peptide-pulsed T2 cells. Nature of the experiment: Antigen-specific cell killing assay. The format is cell-based, human.
For experiment [7], the system named is IFNγ production by activated human T cells. The format is cell-based.
The subject of experiment [8] is mitochondrial respiration of activated human T cells. The format is cell-based.
Experiment [9] has as its system PD-1^+TIM-3^+CD39^+ CD8^+ TILs from NSCLC. The format is cell-based, human. The conditions noted are these: ex vivo stimulated PD-1^+TIM-3^+CD39^+ CD8^+ T cells, adenosine 100 µM, EOS301984 300 nM.
The next experiment has as its system activated human T cells. Nature of the experiment: [3H]adenosine uptake assay. The format is cell-based. The conditions noted are these: dilazep 1 µM, one value per donor.
The mark [10] stands for this setting: in the presence of 100 µM adenosine, 72 h activation.

pEC50: −log10 of the molar value. Where two headings read alike, the source gives them in different places.

`Nc1ncnc2nc(-c3ccc(N4CCOCC4)nc3)cc(-c3cccc(Br)c3)c12` [ABT-702, 4-amino-5-(3-bromophenyl)-7-(6-morpholino-pyridin-3-yl)pyrido[2,3-d]pyrimidine, reference compound]: the “levels of UMP, UDP, UTP and CTP (metabolites downstream of UMPS)” value (shortened to “levels of UMP, UDP, UTP and CTP”) in experiment [1] is given as “restored pyrimidine metabolism”. Besides, the pEC50 in experiment [2] (read-out: EC50, rescue of activated CD8^+ T cell proliferation) was 7.62.
For the molecule `Nc1ncnc2c1ncn2[C@@H]1O[C@H](COP(=O)(O)OP(=O)(O)OP(=O)(O)O)[C@@H](O)[C@H]1O` [ATP], the “Tet^+ of CD8^+ T cells” value in [3] is recorded as “profound suppression”. Further, the “effect of the substance on T cell proliferation” value (“effect … on T cell proliferation” for short) in experiment [2] is on record as “suppressed”. Moreover, in [4], the “effect of the substance on T cell viability” value was “suppressed”. Besides, the “effect of the substance on TNF production” value in experiment [5] is “suppressed”. In addition, in experiment [6] (ATP present during the expansion phase), the “antigen-specific killing by the PBMC population” value is given as “reduced”.
On to `Nc1ncnc2c1ncn2[C@@H]1O[C@H](CO)[C@@H](O)[C@H]1O` [Adenosine, adenosine], for which the “effect of the substance on IFNγ production” value in experiment [7] (activated human T cells) is “inhibited”. In [1], the “levels of UMP, UDP, UTP and CTP” value is “dose-dependently depleted”; the “levels of carbamoyl aspartate, DHO and orotate” value is reported as “increase”. The “levels of adenosine metabolites (purines)” value in experiment [1] (adenosine-treated versus DMSO-treated T cells) is reported as “Dose-dependent increases”. For the same molecule, the “effect … on T cell proliferation” value in experiment [2] is recorded as “inhibited”. In addition, the “mitochondrial respiration (OCR)” value in [8] is “reduced”. Moreover, the “effect of the substance on T cell viability” value in experiment [4] is “loss of viability”. In addition, in experiment [5], the “effect of the substance on TNF production” value is listed as “inhibited”. In experiment [9], the “fraction of cells producing IFNγ and granzyme B” value was “suppressed”.
As for `COc1cc(C(=O)OCCCN2CCCN(CCCOC(=O)c3cc(OC)c(OC)c(OC)c3)CC2)cc(OC)c1OC` [Dilazep, dilazep, reference compound], the IFNγ production entry in experiment [7] (in the presence of 100 µM adenosine) is given as “restored”. Further, in experiment [1], the “levels of UMP, UDP, UTP and CTP” value was “increased”; the “levels of carbamoyl aspartate, DHO and orotate” value is reported as “reduced”. In addition, the “restoration of T cell proliferation” value in experiment [2] (setting [10]) is “restored”. Further, in the experiment with activated human T cells, the “[3H]adenosine uptake” value is reported as “reduced”. Further, in [4] (setting [10]), the “restoration of T cell viability” value is “restored”.
Take `O=c1ccn([C@@H]2O[C@H](CO)[C@@H](O)[C@H]2O)c(=O)[nH]1` [Uridine, uridine]: the “levels of UMP, UDP, UTP and CTP” value in experiment [1] was “normalized pyrimidine levels”. Besides, in experiment [2] (read-out: EC50, rescue of T cell proliferation), the pEC50 was 5.96. For the same molecule, in experiment [2], the “effect … on T cell proliferation” value is “did not suppress” and the “restoration of adenosine-mediated inhibition of T cell proliferation” value is reported as “restored”.
Regarding `Nc1ccn([C@@H]2O[C@H](CO)[C@@H](O)[C@H]2O)c(=O)n1` [cytidine], in experiment [2], the “effect … on T cell proliferation” value was “did not suppress” and the “restoration of adenosine-mediated inhibition of T cell proliferation” value is reported as “not observed”.
As to “Anti-PD-1: anti-PD-1 antibody OPDIVO (nivolumab), Bristol-Myers Squibb [reference compound]”, the “antigen-specific killing by the PBMC population” value in experiment [6] (in the absence of ATP) is on record as “did not have a clear effect”.

(Values after paper PMC12133574 (Nature Immunology, 2025).)
